Structure (SMILES)	logP
COc1c(OC)c(OC(=O)C(C)C)c2ccccc2c1OC(=O)C(C)C	4.61
COc1c(OC)c(OC(C)=O)c2cc(C#N)ccc2c1OC(C)=O	2.28
COc1c(OC)c(OC(C)=O)c2cc(F)ccc2c1OC(C)=O	2.75
COc1c(OC)c(OC(C)=O)c2c(Cl)cccc2c1OC(C)=O	3.16
COc1c(OC)c(OC(C)=O)c2c(C#N)cccc2c1OC(C)=O	2.51
COc1ccc2c(OC(C)=O)c(OC)c(OC)c(OC(C)=O)c2c1	2.39
COc1c(OC)c(OC(C)=O)c2ccccc2c1OC(C)=O	2.39
COc1c(OC)c(OC(=O)C(C)(C)C)c2ccccc2c1OC(=O)C(C)(C)C	5.69
COc1c(OC)c(OC(C)=O)c2c(OC)cccc2c1OC(C)=O	2.43
COc1c(OC)c(OC(C)=O)c2cc(Cl)ccc2c1OC(C)=O	3.26
COc1c(OC)c(OC(C)=O)c2cc(C)ccc2c1OC(C)=O	2.86
COc1c(OC)c(OC(C)=O)c2cc(Br)ccc2c1OC(C)=O	3.39

Source: the OPERA property sets (Mansouri et al. 2018)
